Key:
Assay in all cases: Post-emergence efficacy, glasshouse spray test
Assay type in all cases: in vivo
[1] = tested on: Euphorbia heterophylla (EPHHL); conditions: Euphorbia heterophylla, post-emergence, 312 h; application rate 1000 g/Ha; evaluated after 13 days; read-out: Control of weed species EPHHL after post-emergence application (100=total damage to plant; 0=no damage to plant)
Outline: (§1)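 Efficacy was rated 13 days post-treatment on a 0–100 damage scale. Treatment was a post-emergence spray on plants raised 14 days in soil at 24/16 °C, 14 h photoperiod and 65% humidity.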

Lolium perenne (LOLPE) = conditions: Lolium perenne, post-emergence, 312 h; application rate 1000 g/Ha; evaluated after 13 days; read-out: Control of weed species LOLPE after post-emergence application (100=total damage to plant; 0=no damage to plant)
Outline: as §1

Setaria faberi (SETFA) = conditions: Setaria faberi, post-emergence, 312 h; application rate 1000 g/Ha; evaluated after 13 days; read-out: Control of weed species SETFA after post-emergence application (100=total damage to plant; 0=no damage to plant)
Outline: as §1

[2] = tested on: Ipomoea hederacea (IPOHE); conditions: Ipomoea hederacea, post-emergence, 312 h; application rate 1000 g/Ha; evaluated after 13 days; read-out: Control of weed species IPOHE after post-emergence application (100=total damage to plant; 0=no damage to plant)
Outline: as §1

[3] = tested on: Digitaria sanguinalis (DIGSA); conditions: Digitaria sanguinalis, post-emergence, 312 h; application rate 1000 g/Ha; evaluated after 13 days; read-out: Control of weed species DIGSA after post-emergence application (100=total damage to plant; 0=no damage to plant)
Outline: as §1

[4] = tested on: Echinochloa crus-galli (ECHCG); conditions: Echinochloa crus-galli, post-emergence, 312 h; application rate 1000 g/Ha; evaluated after 13 days; read-out: Control of weed species ECHCG after post-emergence application (100=total damage to plant; 0=no damage to plant)
Outline: as §1

[5] = tested on: Chenopodium album (CHEAL); conditions: Chenopodium album, post-emergence, 312 h; application rate 1000 g/Ha; evaluated after 13 days; read-out: Control of weed species CHEAL after post-emergence application (100=total damage to plant; 0=no damage to plant)
Outline: as §1

[6] = tested on: Amaranthus palmeri (AMAPA); conditions: Amaranthus palmeri, post-emergence, 312 h; application rate 1000 g/Ha; evaluated after 13 days; read-out: Control of weed species AMAPA after post-emergence application (100=total damage to plant; 0=no damage to plant)
Outline: as §1

Eleusine indica (ELEIN) = conditions: Eleusine indica, post-emergence, 312 h; application rate 1000 g/Ha; evaluated after 13 days; read-out: Control of weed species ELEIN after post-emergence application (100=total damage to plant; 0=no damage to plant)
Outline: as §1

| SMILES | pest or weed control at 1000 g/ha [1] [%] | pest or weed control at 1000 g/ha (Lolium perenne (LOLPE)) [%] | pest or weed control at 1000 g/ha (Setaria faberi (SETFA)) [%] | pest or weed control at 1000 g/ha [2] [%] | pest or weed control at 1000 g/ha [3] [%] | pest or weed control at 1000 g/ha [4] [%] | pest or weed control at 1000 g/ha [5] [%] | pest or weed control at 1000 g/ha [6] [%] | pest or weed control at 1000 g/ha (Eleusine indica (ELEIN)) [%] |
| --- | --- | --- | --- | --- | --- | --- | --- | --- | --- |
| Cc1c[n+](CC(=O)O)nc2ccccc12 [Compound A66] | 20 | 0 | 0 | 30 | 0 | 0 | 60 | 20 | 20 |
| O=S(=O)([O-])CCC[n+]1ccc2ccccc2n1 [Compound A67] | 70 | 80 | 80 | 80 | 80 | 60 | 90 | 100 | 80 |
| COc1ccc2n[n+](CC(=O)[O-])ccc2c1 [Compound A68] | 20 | 10 | 30 | 20 | 30 | 50 | 50 | 60 | 20 |
| Cc1ccc2n[n+](CC(=O)[O-])ccc2c1 [Compound A69] | 40 | 0 | 30 | 0 | 30 | 40 | 0 | 30 | 30 |
| O=P(O)(O)CCC[n+]1ccc2ccccc2n1 [Compound A70] | 80 | 40 | 60 | 100 | 80 | 40 | 90 | 80 | 90 |
| O=P([O-])(O)CC[n+]1ccc2ccccc2n1 [Compound A71] | 90 | 30 | 70 | 40 | 80 | 40 | 100 | 70 | 70 |
| COP(=O)([O-])CCC[n+]1ccc2ccccc2n1 [Compound A72, 3-cinnolin-2-ium-2-ylpropyl(methoxy)phosphinate] | 50 | 50 | 60 | 100 | 50 | 50 | 70 | 70 | 70 |
| O=P(O)(O)C[n+]1ccc2ccccc2n1 [Compound A73, cinnolin-2-ium-2-ylmethyl(hydroxy)phosphinate chloride] | 10 | 10 | 0 | 30 | 10 | 10 | 0 | 10 | 10 |
| O=C([O-])C[C@H](O)C[n+]1ccc2ccccc2n1 [Compound A74, (3S)-4-cinnolin-2-ium-2-yl-3-hydroxy-butanoate] | 10 | 0 | 0 | 10 | 0 | 0 | 0 | 0 | 0 |
| Cc1cc2ccccc2n[n+]1CCOS(=O)(=O)[O-] [Compound A75] | 40 | 20 | 30 | 30 | 70 | 30 | 90 | 100 | 80 |
| Cc1cc2ccccc2n[n+]1CCCS(=O)(=O)[O-] [Compound A76] | 50 | 30 | 60 | 40 | 60 | 60 | 60 | 60 | 60 |
| Cc1cc2ccccc2n[n+]1CCS(=O)(=O)[O-] [Compound A77, 2-(3-methylcinnolin-2-ium-2-yl)ethanesulfonate] | 90 | 40 | 30 | 80 | 90 | 30 | 100 | 100 | 90 |
| O=S(=O)(O)CC[n+]1ccc2ccc(-c3ccccc3)cc2n1 [Compound A78] | 40 | 0 | 30 | 10 | 50 | 20 | 0 | 20 | 70 |
| O=S(=O)(O)CC[n+]1cc(C2CC2)c2ccccc2n1 [Compound A79] | 40 | 10 | 30 | 40 | 20 | 20 | 30 | 60 | 10 |
| O=S(=O)([O-])CC[n+]1ccc2ccc(C(F)(F)F)cc2n1 [Compound A80] | 20 | 10 | 30 | 0 | 20 | 20 | 20 | 0 | 30 |
| O=S(=O)([O-])CC[n+]1ccc2c(F)cccc2n1 [Compound A81] | 90 | 20 | 20 | 10 | 20 | 20 | 70 | 40 | 30 |
| O=S(=O)([O-])CC[n+]1ccc2cc(F)ccc2n1 [Compound A82] | 60 | 30 | 30 | 40 | 40 | 20 | 70 | 90 | 60 |
| O=S(=O)([O-])CC[n+]1ccc2ccc(F)cc2n1 [Compound A83] | 100 | 50 | 50 | 60 | 50 | 40 | 100 | 100 | 80 |
| O=S(=O)([O-])CC[n+]1ccc2cccc(F)c2n1 [Compound A84] | 100 | 50 | 50 | 50 | 60 | 20 | 70 | 100 | 70 |
